Experimental data: ChEMBL document CHEMBL1152560, “Substituted 2-arylbenzothiazoles as kinase inhibitors: hit-to-lead optimization” (Bioorg Med Chem, 2009)

Experiments:
[1] = target: Mitogen-activated protein kinase 9 (Homo sapiens) (UniProt P45984); experiment: Residual activity of JNK2 at 0.1 uM by microplate scintillation counting
[2] = target: T1, Eukaryotic translation initiation factor 2-alpha kinase 3 (Homo sapiens) (UniProt Q9NZJ5); experiment: Residual activity of EIF2AK3 at 10 uM by microplate scintillation counting
T1 sequence (whole entry): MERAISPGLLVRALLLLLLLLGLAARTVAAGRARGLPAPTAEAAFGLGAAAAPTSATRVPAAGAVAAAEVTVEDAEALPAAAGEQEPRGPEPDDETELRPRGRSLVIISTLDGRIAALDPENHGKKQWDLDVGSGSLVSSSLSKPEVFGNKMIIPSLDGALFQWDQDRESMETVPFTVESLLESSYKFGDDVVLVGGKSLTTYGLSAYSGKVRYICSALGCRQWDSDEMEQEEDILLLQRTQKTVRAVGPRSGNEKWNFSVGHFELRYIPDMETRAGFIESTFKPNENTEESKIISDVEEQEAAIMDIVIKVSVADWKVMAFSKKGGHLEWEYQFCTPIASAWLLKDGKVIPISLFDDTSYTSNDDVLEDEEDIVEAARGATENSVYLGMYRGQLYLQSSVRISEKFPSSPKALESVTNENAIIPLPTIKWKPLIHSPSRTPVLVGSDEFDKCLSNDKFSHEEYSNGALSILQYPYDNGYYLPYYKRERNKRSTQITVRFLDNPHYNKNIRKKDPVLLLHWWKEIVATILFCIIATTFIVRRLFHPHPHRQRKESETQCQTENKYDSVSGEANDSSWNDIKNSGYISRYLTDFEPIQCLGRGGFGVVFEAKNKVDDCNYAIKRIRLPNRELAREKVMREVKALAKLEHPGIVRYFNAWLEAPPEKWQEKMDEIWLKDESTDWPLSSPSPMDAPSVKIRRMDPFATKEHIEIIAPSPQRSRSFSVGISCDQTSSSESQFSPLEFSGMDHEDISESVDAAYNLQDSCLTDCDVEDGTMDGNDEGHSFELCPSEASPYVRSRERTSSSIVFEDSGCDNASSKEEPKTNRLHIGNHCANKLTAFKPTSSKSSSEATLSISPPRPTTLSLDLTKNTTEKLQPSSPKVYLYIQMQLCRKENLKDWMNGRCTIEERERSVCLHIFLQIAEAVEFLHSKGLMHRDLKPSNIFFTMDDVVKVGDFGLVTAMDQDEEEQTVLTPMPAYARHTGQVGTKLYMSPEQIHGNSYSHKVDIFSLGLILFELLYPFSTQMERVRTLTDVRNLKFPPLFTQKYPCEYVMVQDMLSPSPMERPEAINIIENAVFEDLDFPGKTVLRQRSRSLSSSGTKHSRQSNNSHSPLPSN

[3] = target: Serine/threonine-protein kinase Nek6 (Homo sapiens) (UniProt Q9HC98); experiment: Residual activity of NEK6 at 10 uM by microplate scintillation counting
[4] = target: T2, Myotonin-protein kinase (Homo sapiens) (UniProt Q09013); experiment: Residual activity of DMPK at 0.1 uM by microplate scintillation counting
T2 sequence (whole entry): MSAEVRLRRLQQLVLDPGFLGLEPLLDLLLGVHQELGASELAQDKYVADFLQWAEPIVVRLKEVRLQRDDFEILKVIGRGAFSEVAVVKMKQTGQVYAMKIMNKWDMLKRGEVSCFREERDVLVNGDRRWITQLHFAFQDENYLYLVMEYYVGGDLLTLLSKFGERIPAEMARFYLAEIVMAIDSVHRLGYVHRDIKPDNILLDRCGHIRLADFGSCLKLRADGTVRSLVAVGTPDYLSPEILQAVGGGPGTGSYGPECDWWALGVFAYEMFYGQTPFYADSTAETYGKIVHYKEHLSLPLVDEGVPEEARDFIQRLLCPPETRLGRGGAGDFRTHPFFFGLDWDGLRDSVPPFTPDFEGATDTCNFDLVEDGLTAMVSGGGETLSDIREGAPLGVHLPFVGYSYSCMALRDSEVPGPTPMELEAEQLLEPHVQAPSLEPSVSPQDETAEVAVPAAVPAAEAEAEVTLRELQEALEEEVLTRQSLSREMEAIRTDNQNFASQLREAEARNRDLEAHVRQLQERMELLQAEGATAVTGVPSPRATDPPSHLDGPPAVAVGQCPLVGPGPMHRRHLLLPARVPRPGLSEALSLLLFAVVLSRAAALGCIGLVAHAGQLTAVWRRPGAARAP

[5] = target: Serine/threonine-protein kinase PAK 5 (Homo sapiens) (UniProt Q9P286); experiment: Residual activity of PAK7 at 1 uM by microplate scintillation counting
[6] = target: Ribosomal protein S6 kinase alpha-3 (Homo sapiens) (UniProt P51812); experiment: Residual activity of RPS6KA3 at 10 uM by microplate scintillation counting
[7] = target: T3, Inhibitor of nuclear factor kappa-B kinase subunit epsilon (Homo sapiens) (UniProt Q14164); experiment: Residual activity of IKKepsilon at 10 uM by microplate scintillation counting
T3 sequence (whole entry): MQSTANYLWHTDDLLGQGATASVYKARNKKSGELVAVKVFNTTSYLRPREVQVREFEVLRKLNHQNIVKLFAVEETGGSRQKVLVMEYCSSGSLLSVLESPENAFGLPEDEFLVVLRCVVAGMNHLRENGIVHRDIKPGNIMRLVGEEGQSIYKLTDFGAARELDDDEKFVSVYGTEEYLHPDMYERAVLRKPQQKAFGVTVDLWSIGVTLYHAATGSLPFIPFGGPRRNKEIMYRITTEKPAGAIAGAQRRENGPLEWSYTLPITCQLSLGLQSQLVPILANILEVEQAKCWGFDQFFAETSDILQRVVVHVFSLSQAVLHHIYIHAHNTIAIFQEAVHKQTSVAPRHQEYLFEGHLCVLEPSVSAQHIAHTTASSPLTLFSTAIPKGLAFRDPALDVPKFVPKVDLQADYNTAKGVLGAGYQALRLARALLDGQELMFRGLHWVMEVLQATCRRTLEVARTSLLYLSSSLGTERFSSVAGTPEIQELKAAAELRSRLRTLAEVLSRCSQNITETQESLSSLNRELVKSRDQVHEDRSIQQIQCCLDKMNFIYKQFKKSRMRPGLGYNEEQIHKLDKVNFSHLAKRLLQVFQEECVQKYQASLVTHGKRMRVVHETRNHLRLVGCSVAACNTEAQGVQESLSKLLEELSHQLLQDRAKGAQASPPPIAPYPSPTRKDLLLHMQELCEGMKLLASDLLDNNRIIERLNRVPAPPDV

Angiopoietin-1 receptor = Angiopoietin-1 receptor (Homo sapiens, UniProt Q02763); experiment: Residual activity of TIE2 at 10 uM by microplate scintillation counting
Sequence of Angiopoietin-1 receptor (Q02763 whole entry): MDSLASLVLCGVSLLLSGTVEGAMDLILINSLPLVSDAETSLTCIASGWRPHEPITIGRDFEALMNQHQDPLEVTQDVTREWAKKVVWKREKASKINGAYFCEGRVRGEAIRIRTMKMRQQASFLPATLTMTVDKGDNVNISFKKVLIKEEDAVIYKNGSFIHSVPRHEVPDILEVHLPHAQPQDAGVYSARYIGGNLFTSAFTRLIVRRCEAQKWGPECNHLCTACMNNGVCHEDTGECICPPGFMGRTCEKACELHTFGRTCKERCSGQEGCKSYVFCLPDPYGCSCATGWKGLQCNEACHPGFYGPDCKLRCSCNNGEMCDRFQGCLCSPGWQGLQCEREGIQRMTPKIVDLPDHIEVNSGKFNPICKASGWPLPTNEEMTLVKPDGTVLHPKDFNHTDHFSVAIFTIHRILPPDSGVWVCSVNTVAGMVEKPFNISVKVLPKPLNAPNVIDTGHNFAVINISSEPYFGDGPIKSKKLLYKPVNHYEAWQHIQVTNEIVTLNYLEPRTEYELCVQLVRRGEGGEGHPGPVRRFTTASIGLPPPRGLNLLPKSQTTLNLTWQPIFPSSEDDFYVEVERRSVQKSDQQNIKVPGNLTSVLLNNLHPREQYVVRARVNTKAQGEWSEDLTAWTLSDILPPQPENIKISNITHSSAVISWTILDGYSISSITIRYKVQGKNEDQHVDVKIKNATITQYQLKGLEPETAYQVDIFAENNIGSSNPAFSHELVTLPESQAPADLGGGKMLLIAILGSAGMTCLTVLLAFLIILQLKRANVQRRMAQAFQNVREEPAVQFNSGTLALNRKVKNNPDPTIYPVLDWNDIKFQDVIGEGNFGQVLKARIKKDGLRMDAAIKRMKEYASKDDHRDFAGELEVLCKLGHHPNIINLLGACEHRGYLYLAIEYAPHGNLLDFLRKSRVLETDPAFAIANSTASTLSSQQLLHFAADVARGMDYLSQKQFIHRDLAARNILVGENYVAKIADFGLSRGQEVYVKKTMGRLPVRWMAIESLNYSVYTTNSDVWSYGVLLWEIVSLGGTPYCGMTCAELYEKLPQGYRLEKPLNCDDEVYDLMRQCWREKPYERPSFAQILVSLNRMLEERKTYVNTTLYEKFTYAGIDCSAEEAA

Sequence of Serine/threonine-protein kinase PAK 5 (Homo sapiens) (Q9P286 whole entry, looked up): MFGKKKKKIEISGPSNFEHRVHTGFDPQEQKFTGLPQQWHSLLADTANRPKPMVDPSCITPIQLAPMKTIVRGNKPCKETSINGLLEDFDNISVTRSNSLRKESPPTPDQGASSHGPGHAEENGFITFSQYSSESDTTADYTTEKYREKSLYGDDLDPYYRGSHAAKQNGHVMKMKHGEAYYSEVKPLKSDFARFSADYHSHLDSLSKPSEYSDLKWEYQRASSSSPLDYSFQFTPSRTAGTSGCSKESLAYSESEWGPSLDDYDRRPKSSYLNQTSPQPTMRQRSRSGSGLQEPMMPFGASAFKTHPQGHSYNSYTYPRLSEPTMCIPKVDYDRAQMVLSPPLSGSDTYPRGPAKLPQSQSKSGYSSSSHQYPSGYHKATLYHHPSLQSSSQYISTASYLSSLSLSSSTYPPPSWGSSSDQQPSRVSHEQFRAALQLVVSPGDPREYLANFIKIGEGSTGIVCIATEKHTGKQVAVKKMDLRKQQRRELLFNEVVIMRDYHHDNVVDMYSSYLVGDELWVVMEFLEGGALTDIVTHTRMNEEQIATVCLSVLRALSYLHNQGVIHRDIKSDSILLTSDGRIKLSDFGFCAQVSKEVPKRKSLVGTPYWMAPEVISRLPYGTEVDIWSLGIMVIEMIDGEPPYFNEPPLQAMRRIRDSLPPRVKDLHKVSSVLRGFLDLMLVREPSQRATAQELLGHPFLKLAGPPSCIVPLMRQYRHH
Sequence of Ribosomal protein S6 kinase alpha-3 (Homo sapiens) (P51812 whole entry): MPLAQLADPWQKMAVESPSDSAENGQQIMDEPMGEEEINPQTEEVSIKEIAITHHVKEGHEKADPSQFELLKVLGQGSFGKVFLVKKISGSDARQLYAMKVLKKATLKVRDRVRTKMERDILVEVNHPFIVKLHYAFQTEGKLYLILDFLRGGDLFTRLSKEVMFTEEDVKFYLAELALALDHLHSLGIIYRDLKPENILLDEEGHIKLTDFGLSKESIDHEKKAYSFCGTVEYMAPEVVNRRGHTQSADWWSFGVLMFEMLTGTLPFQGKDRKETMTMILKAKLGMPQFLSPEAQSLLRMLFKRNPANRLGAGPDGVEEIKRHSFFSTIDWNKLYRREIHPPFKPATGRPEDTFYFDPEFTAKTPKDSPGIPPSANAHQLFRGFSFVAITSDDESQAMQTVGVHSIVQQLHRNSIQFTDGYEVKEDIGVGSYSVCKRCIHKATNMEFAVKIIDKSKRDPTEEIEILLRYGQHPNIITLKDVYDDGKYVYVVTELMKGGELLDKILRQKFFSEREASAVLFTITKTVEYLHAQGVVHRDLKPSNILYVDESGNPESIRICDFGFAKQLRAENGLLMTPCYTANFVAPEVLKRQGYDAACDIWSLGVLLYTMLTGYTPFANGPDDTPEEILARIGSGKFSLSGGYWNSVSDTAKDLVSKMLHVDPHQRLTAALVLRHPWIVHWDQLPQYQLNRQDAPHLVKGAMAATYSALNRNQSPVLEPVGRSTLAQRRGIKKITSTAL
Sequence of Serine/threonine-protein kinase Nek6 (Homo sapiens) (Q9HC98 whole entry): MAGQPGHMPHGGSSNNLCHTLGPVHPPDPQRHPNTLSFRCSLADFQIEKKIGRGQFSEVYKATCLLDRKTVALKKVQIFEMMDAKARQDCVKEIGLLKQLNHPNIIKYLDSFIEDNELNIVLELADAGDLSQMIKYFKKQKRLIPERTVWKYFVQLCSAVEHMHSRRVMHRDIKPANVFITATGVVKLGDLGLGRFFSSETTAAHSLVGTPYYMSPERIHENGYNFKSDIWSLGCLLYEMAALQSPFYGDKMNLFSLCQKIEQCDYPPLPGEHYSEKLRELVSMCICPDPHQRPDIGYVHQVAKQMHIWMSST
Sequence of Mitogen-activated protein kinase 9 (Homo sapiens) (P45984 whole entry, looked up): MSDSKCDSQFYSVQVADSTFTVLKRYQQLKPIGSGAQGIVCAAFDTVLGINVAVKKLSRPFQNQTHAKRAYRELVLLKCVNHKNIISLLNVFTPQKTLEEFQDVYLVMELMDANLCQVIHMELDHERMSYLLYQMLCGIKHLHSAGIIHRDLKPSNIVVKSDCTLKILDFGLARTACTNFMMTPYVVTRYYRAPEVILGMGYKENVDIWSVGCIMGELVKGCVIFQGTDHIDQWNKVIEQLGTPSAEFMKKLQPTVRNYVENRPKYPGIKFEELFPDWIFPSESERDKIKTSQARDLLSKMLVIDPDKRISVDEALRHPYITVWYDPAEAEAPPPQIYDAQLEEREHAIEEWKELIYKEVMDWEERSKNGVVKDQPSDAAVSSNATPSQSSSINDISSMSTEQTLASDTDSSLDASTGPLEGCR

residual activity [1] [%] | residual activity [2] [%] | residual activity [3] [%] | residual activity [4] [%] | residual activity [5] [%] | residual activity [6] [%] | residual activity [7] [%] | residual activity (Angiopoietin-1 receptor) [%] | Structure (SMILES)
89 | 239 | 94 | 110 | 83 | 58 | 99 | 4 | COc1cc2c(Oc3ccc(-c4nc5ccccc5s4)cc3)ncnc2cc1OCCCN1CCCC1
103 | 155 | 101 | 102 | 83 | 36 | 76 | 4 | COc1cc2c(Oc3ccc(-c4nc5ccccc5s4)cc3F)ncnc2cc1OCCCN1CCN(C)CC1
108 | 256 | 96 | 128 | 77 | 50 | 101 | 3 | COc1cc2c(Oc3ccc(-c4nc5ccccc5s4)cc3)ncnc2cc1OCCCN1CCN(C)CC1
